This note sets out measurements from ChEMBL document CHEMBL6083210, “Exploring apoptotic induction of malabaricone A in triple-negative breast cancer cells: an acylphenol phyto-entity isolated from the fruit rind of Myristica malabarica Lam” (RSC Med Chem, 2024).

Holding throughout (type): functional, cell-based
In one experiment the test system is MCF-10A. The experiment is described as follows: Antiproliferative activity against human MCF-10A cells assessed as reduction in cell viability incubated for 24 hrs by MTT assay.
The subject of another experiment is MDA-MB-231. The experiment is described as follows: Antiproliferative activity against human MDA-MB-231 cells assessed as reduction in cell viability incubated for 24 hrs by MTT assay. The note with it: MDA-MB-231, 24 h.
A further experiment deals with SK-BR-3. Put plainly: Antiproliferative activity against human SK-BR-3 cells assessed as reduction in cell viability incubated for 24 hrs by MTT assay. The note with it: SK-BR-3, 24 h.

Consider `O=C(CCCCCCCCc1ccc2c(c1)OCO2)c1c(O)cccc1O`, for which the IC50 was found to be 82.6 µM in the experiment on MCF-10A, 15.1 µM with MDA-MB-231 and 9.3 µM in the experiment with SK-BR-3.

Consider `COc1cccc2c1C(=O)c1c(O)c3c(c(O)c1C2=O)C[C@@](O)(C(=O)CO)C[C@@H]3O[C@H]1C[C@H](N)[C@H](O)[C@H](C)O1` [DOXORUBICIN], for which the IC50 with MCF-10A is 35.2 µM; in the experiment with MDA-MB-231, 20.8 µM; in the experiment with SK-BR-3, above 50 µM.
